The record followed here is patent US20150353530A1 (CORTENDO AB (PUBL), priority 2013, published 2015).

In general, IC50 refers to the concentration at which inhibition is half-maximal.

Assay type in all cases: cell-based
The target of one test is T1, recombinant CYP-21 (Homo sapiens, UniProt P08686).
T1 construct: expressed in transfected cells
T1 sequence (P08686 1-495): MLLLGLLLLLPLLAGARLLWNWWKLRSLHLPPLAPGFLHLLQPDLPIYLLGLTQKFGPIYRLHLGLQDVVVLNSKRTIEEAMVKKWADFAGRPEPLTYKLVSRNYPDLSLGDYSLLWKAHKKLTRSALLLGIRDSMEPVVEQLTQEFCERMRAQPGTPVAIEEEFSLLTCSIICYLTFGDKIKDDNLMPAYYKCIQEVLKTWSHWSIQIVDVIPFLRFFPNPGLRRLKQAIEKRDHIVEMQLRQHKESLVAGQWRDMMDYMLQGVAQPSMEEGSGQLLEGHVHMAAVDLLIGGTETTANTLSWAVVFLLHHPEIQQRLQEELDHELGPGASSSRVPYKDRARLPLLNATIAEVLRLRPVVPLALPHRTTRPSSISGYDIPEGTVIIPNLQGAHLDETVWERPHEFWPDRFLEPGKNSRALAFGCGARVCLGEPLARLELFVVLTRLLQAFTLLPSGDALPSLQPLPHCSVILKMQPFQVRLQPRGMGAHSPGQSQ
The test is described as follows: Cyp21 assay: AD293 cells over-expressing recombinant CYP-21, 11-deoxycortisol formation from 17α-OH Progesterone by LC/MS. Particulars: eight concentrations 10 μM to 4.5 nM. As to the method:
(§1) Cyp21 assay protocol: AD293 cells that stably over-express recombinant CYP-21 were seeded in 96 well plates coated with poly D-lysine (10,000 cell per well) and incubated at 37° C. for 24 hours in Dulbecco's Modified Eagle Medium (DMEM) with Fetal Bovine Serum (FBS) that is stripped of hormones by charcoal treatment. The media is then removed, the cells are washed once with Phosphate buffer saline solution, and 50 μL Dulbecco's Modified Eagle Medium (DMEM) with Fetal Bovine Serum (FBS) that is stripped of hormones by charcoal treatment is added. Compounds of the disclosure are then added to the wells in eight concentration spanning 10 μM to 4.5 nM, and the plates are incubated for an additional 60 minutes at 37° C. 17α-OH Progesterone is then added (1.0 μM) and the plates are incubated for an additional 45 minutes at 37° C. After incubation, 50 uL of the supernatant (medium) is transferred into a fresh plate and 150 uL of an acetonitrile solution containing 200 ng/ml of Telmisartan is added. The sample is mixed and then placed in a centrifuge at 2000 rpm for 5 minutes.

Another test has as its target T2, recombinant CYP-17 (Homo sapiens, UniProt P05093).
T2 construct: expressed in transfected cells
T2 sequence (P05093 1-508): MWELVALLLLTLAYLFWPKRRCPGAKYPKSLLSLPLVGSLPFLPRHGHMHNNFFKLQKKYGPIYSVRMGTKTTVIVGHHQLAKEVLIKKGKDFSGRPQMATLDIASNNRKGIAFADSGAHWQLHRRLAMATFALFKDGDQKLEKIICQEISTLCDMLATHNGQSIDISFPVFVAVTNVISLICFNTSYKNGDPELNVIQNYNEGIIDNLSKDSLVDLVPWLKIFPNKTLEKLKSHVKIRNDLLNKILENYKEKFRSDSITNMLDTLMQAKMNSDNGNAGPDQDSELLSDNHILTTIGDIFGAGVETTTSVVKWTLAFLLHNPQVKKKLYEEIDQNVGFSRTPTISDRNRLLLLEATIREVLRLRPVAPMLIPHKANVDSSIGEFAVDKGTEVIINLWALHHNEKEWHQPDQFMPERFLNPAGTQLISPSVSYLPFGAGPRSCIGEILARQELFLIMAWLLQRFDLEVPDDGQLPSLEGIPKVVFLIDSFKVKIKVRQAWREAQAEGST
The test is described as follows: Cyp17 assay: AD293 cells over-expressing recombinant CYP-17, 3H-acetic acid release from [21-3H] 17α-hydroxyl-Pregnenolone. Particulars: for IC50: AD293 cells, eight concentrations 10 μM to 4.5 nM. As to the method:
Cyp17 assay protocol: AD293 cells that stably over-express recombinant CYP-17 were seeded in 96 well plates coated with poly D-lysine (15,000 cell per well) and incubated at 37° C. for 24 hours in Dulbecco's Modified Eagle Medium (DMEM) with Fetal Bovine Serum (FBS) that is stripped of hormones by charcoal treatment. The media is then removed, the cells are washed once with Phosphate buffer saline solution, and 50 μL Dulbecco's Modified Eagle Medium (DMEM) with Fetal Bovine Serum (FBS) that is stripped of hormones by charcoal treatment is added. Compounds of the disclosure are then added to the wells in eight concentration spanning 10 μM to 4.5 nM, and the plates are incubated for an additional 60 minutes at 37° C. [21-^3H] […] The media is then collected, 200 μL of chloroform is added, and the mixture is shaken for 1 hour. The aqueous layer is then separated and analyzed for the presence of ^3H-acetic acid using a Perkin Elmer Topcount NXT to determine IC50s of the compounds of the disclosure.

Another test deals with T3, recombinant CYP-11 (Homo sapiens, UniProt P15538).
T3 construct: expressed in transfected cells
T3 sequence (P15538 25-503): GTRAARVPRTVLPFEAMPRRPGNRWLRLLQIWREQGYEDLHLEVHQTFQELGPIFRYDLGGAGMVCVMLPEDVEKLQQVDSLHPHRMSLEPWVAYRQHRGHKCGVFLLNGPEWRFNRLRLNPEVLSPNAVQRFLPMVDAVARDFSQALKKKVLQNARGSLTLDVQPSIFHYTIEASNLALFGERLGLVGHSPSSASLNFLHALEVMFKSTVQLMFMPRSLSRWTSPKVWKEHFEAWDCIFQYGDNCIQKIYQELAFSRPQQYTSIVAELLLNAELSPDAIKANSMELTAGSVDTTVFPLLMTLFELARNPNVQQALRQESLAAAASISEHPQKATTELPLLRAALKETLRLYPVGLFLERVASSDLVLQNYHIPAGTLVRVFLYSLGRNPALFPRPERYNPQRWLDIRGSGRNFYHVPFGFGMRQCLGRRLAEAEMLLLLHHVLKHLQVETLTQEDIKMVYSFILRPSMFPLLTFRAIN
The test is described as follows: Cyp11 assay: AD293 cells over-expressing recombinant CYP-11, cortisol formation from 11-deoxycortisol by LC/MS. Conditions: eight concentrations 10 μM to 4.5 nM. As for the experimental part: as §1, with “AD293” for “Cyp21 assay protocol: AD293”, “CYP-11” for “CYP-21”, “(15,000” for “(10,000”, “11-deoxycortisol” for “17α-OH Progesterone”, “(2.0” for “(1.0”, “12 hours” for “45 minutes”

On to `COC(=O)N1CCN(c2ccc(OC[C@@H]3CO[C@@](Cn4ccnc4)(c4ccc(Cl)cc4Cl)O3)cc2)CC1` (racemic) [Entry 1], for which the IC50 turned out to be 0.16 µM on recombinant CYP-21 and 0.1 µM on recombinant CYP-11. For the same compound, the inhibition at 0.1 µM at recombinant CYP-17 (AD293, 4 h, read-out: Cyp17 % @ 0.1 μM (printed in the Cyp17 IC50 column)) stood at 83%.
`COCCOC(=O)N1CCN(c2ccc(OC[C@@H]3CO[C@@](Cn4ccnc4)(c4ccc(Cl)cc4Cl)O3)cc2)CC1` (racemic) [Entry 2]: the values for the IC50 on recombinant CYP-21, on recombinant CYP-17 and at recombinant CYP-11 were 0.23 µM, 0.1 µM and 0.1 µM, respectively.
Turning to `CN(C)C(=O)N1CCN(c2ccc(OC[C@@H]3CO[C@@](Cn4ccnc4)(c4ccc(Cl)cc4Cl)O3)cc2)CC1` (racemic) [Entry 3], the IC50 at recombinant CYP-17 and at recombinant CYP-11 was 0.1 µM in each case.
With `Clc1ccc([C@]2(Cn3ccnc3)OC[C@@H](COc3ccc(N4CCN(C5=NCCO5)CC4)cc3)O2)c(Cl)c1` (racemic) [Entry 34], the IC50 was 0.423 µM on recombinant CYP-21, 0.03 µM at recombinant CYP-17 and 0.148 µM at recombinant CYP-11.
For `CCNC(=O)N1CCN(c2ccc(OC[C@@H]3CO[C@@](Cn4ccnc4)(c4ccc(Cl)cc4Cl)O3)cc2)CC1` [Entry 12], in that order: 0.69 µM, 0.035 µM and 0.052 µM.
`CCOC(=O)CNC(=O)N1CCN(c2ccc(OC[C@@H]3CO[C@@](Cn4ccnc4)(c4ccc(Cl)cc4Cl)O3)cc2)CC1` [Entry 13]: the IC50 at recombinant CYP-21 was 0.71 µM; on recombinant CYP-17 it was 0.025 µM; on recombinant CYP-11, 0.066 µM.
In the case of `CCNC(=O)N1CCN(c2ccc(OC[C@H]3CO[C@](Cn4ccnc4)(c4ccc(Cl)cc4Cl)O3)cc2)CC1` [Entry 14], the IC50 was determined as 0.043 µM at recombinant CYP-17 and 0.5 µM at recombinant CYP-11.
For the compound `CCOC(=O)CNC(=O)N1CCN(c2ccc(OC[C@H]3CO[C@](Cn4ccnc4)(c4ccc(Cl)cc4Cl)O3)cc2)CC1` [Entry 15], the figures for the IC50 at recombinant CYP-21, at recombinant CYP-17 and on recombinant CYP-11 were 2.46 µM, 0.31 µM and 0.53 µM, respectively.
For `COC(=O)[C@@H](NC(=O)N1CCN(c2ccc(OC[C@@H]3CO[C@@](Cn4ccnc4)(c4ccc(Cl)cc4Cl)O3)cc2)CC1)C(C)C` [Entry 16], in that order: 0.244 µM, 0.01 µM and 0.1 µM.
On the same counts, the results for `COC(=O)[C@H](Cc1ccccc1)NC(=O)N1CCN(c2ccc(OC[C@@H]3CO[C@@](Cn4ccnc4)(c4ccc(Cl)cc4Cl)O3)cc2)CC1` [Entry 17] are 0.36 µM, 0.043 µM and 0.1 µM.
On the same counts, the results for `COC(=O)[C@@H](NC(=O)N1CCN(c2ccc(OC[C@H]3CO[C@](Cn4ccnc4)(c4ccc(Cl)cc4Cl)O3)cc2)CC1)C(C)C` [Entry 18] are 0.72 µM, 0.137 µM and 0.11 µM.
As to `COC(=O)[C@H](Cc1ccccc1)NC(=O)N1CCN(c2ccc(OC[C@H]3CO[C@](Cn4ccnc4)(c4ccc(Cl)cc4Cl)O3)cc2)CC1` [Entry 19], the IC50 came out at 0.74 µM at recombinant CYP-21, 0.25 µM on recombinant CYP-17 and 0.24 µM on recombinant CYP-11.
On the same counts, the results for `O=S(=O)(CC(F)(F)F)N1CCN(c2ccc(OC[C@@H]3CO[C@@](Cn4ccnc4)(c4ccc(Cl)cc4Cl)O3)cc2)CC1` [Entry 20] are 0.078 µM, 0.61 µM and 0.07 µM.
For `CCCS(=O)(=O)N1CCN(c2ccc(OC[C@@H]3CO[C@@](Cn4ccnc4)(c4ccc(Cl)cc4Cl)O3)cc2)CC1` [Entry 22], in that order: 0.128 µM, 0.008 µM and 0.091 µM.
For `CC(C)CS(=O)(=O)N1CCN(c2ccc(OC[C@@H]3CO[C@@](Cn4ccnc4)(c4ccc(Cl)cc4Cl)O3)cc2)CC1` [Entry 23], in that order: 0.249 µM, 0.045 µM and 0.388 µM.
Regarding `O=S(=O)(CCC(F)(F)F)N1CCN(c2ccc(OC[C@@H]3CO[C@@](Cn4ccnc4)(c4ccc(Cl)cc4Cl)O3)cc2)CC1` [Entry 27], the IC50 on recombinant CYP-21 worked out at 0.373 µM; at recombinant CYP-17, 0.24 µM; at recombinant CYP-11, 10 µM.
For `O=S(=O)(CC(F)F)N1CCN(c2ccc(OC[C@@H]3CO[C@@](Cn4ccnc4)(c4ccc(Cl)cc4Cl)O3)cc2)CC1` [Entry 29], in that order: 0.08 µM, 0.011 µM and 0.28 µM.
For `N=C(N)N1CCN(c2ccc(OC[C@@H]3CO[C@@](Cn4ccnc4)(c4ccc(Cl)cc4Cl)O3)cc2)CC1` [Entry 33], in that order: 10 µM, 0.34 µM and 1.9 µM.
